Measured values: patent US8278267B2 (Amylin Pharmaceuticals, LLC, priority 2005, dated 2012)

Columns and labels:
[1] = human trials; cited from earlier work
[2] = Pramlintide on satiation and binge eating (Binge Eating Scale), single-blind placebo-controlled study in obese subjects; assay type: in vivo, human
Protocol: The ability of the amylin agonist pramlintide to control or influence eating behavior was examined in human subjects. For the assessment, 24 hour-food intake (FI, ad-libitum meals), weight, feelings of hunger and fullness, and binge-eating (Binge Eating Scale, BES) were measured in a single-blind, placebo-controlled study. Obese subjects without eating disorders (50/50% female/male; BMI 35.61±3.98 kg/m^2, mean±SD) were randomized to six weeks of treatment with pramlintide or placebo. Pramlintide (180 μg) was administered subcutaneously three times per day (TID) prior to meals for 6 weeks and no lifestyle intervention was provided (TID evaluable N=59, placebo evaluable N=25). […] A follow-up evaluation of the subjects was performed four weeks after cessation of the treatment. In addition to the measurement of food intake and weight, subjects were also assessed for the feelings of hunger and fullness over a 12-hour observation period on the day before treatment, the first day of treatment, and on Day 43. During the study, subjects were categorized by binge-eating severity as mild, moderate, or severe based on total BES scores.

[3] = Pramlintide on weight and anthropometric parameters, 16-week double-blind placebo-controlled study in obese subjects; assay type: in vivo, human
Protocol: In a randomized, double-blind, placebo-controlled study, changes in body weight and anthropometric parameters, as well as indicators of glycemic control (e.g., HbA1c), serum lipids and glucose tolerance, were assessed in response to pramlintide administration to obese (BMI≧30 kg/m^2 to ≦50 kg/m^2) non-diabetic individuals and obese individuals with non-insulin treated type 2 diabetes mellitus.

[4] = Adsorption onto glass container in liquid form; assay type: physicochemical
[5] = CSI (N = 47), Baseline (Day −1)
[6] = TID (N = 59), Baseline (Day −1)
[7] = pramlintide 180 μg s.c. TID, after 6 weeks
[8] = 16 weeks, least squares mean±SE
[9] = after 16 weeks, evaluable population

CC[C@H](C)[C@H](NC(=O)[C@@H]1CCCN1C(=O)CNC(=O)[C@H](Cc1ccccc1)NC(=O)[C@H](CC(N)=O)NC(=O)[C@H](CC(N)=O)NC(=O)[C@H](CO)NC(=O)[C@H](CO)NC(=O)[C@H](Cc1c[nH]cn1)NC(=O)[C@@H](NC(=O)[C@H](CC(C)C)NC(=O)[C@H](Cc1ccccc1)NC(=O)[C@H](CC(N)=O)NC(=O)[C@H](C)NC(=O)[C@H](CC(C)C)NC(=O)[C@H](CCCNC(=N)N)NC(=O)[C@H](CCC(N)=O)NC(=O)[C@@H](NC(=O)[C@H](C)NC(=O)[C@@H]1CSSC[C@H](NC(=O)[C@@H](N)CCCCN)C(=O)N[C@@H](CC(N)=O)C(=O)N[C@@H]([C@@H](C)O)C(=O)N[C@@H](C)C(=O)N[C@@H]([C@@H](C)O)C(=O)N1)[C@@H](C)O)C(C)C)C(=O)N[C@@H](CC(C)C)C(=O)N1CCC[C@H]1C(=O)N1CCC[C@H]1C(=O)N[C@H](C(=O)N[C@@H](CC(N)=O)C(=O)N[C@H](C(=O)NCC(=O)N[C@@H](CO)C(=O)N[C@@H](CC(N)=O)C(=O)N[C@H](C(=O)N[C@@H](Cc1ccc(O)cc1)C(N)=O)[C@@H](C)O)C(C)C)[C@@H](C)O [Pramlintide, ^25,28,29Pro-h-amylin]
weight or weight gain [1]: reduce weight or weight gain
reduction of mean total caloric intake compared with pooled placebo ([2]; CSI 50 μg/h, Day 43): ~7%
reduction of mean total caloric intake compared with pooled placebo ([2]; CSI 50 μg/h, first day of treatment): approximately 22%
subjects with total BES score >17 to <27 (Moderate) [2, 5]: (36.2) %
subjects with total BES score ≦17 (Mild) [2, 5]: (51.1) %
subjects with total BES score ≧27 (Severe) [2, 5]: (12.8) %
subjects with total BES score >17 to <27 (Moderate) ([2]; CSI (N = 47), Day 42): (17.0) %
subjects with total BES score ≦17 (Mild) ([2]; CSI (N = 47), Day 42): (74.5) %
subjects with total BES score ≧27 (Severe) ([2]; CSI (N = 47), Day 42): (8.5) %
subjects with total BES score >17 to <27 (Moderate) ([2]; CSI (N = 47), Day 72): (14.9) %
subjects with total BES score ≦17 (Mild) ([2]; CSI (N = 47), Day 72): (63.8) %
subjects with total BES score ≧27 (Severe) ([2]; CSI (N = 47), Day 72): (8.5) %
subjects with total BES score >17 to <27 (Moderate) [2, 6]: (23.7) %
subjects with total BES score ≦17 (Mild) [2, 6]: (64.4) %
subjects with total BES score ≧27 (Severe) [2, 6]: (8.5) %
subjects with total BES score ≦17 (Mild) ([2]; TID (N = 59), Baseline (Day −1), listed as pramlintide): 64.4%
subjects with total BES score >17 to <27 (Moderate) ([2]; TID (N = 59), Day 42): (11.9) %
subjects with total BES score ≦17 (Mild) ([2]; TID (N = 59), Day 42): (83.1) %
subjects with total BES score ≧27 (Severe) ([2]; TID (N = 59), Day 42): (5.1) %
subjects with total BES score ≦17 (Mild) ([2]; TID (N = 59), Day 42, listed as pramlintide): 83.1%
subjects with total BES score >17 to <27 (Moderate) ([2]; TID (N = 59), Day 72): (13.6) %
subjects with total BES score ≦17 (Mild) ([2]; TID (N = 59), Day 72): (76.3) %
subjects with total BES score ≧27 (Severe) ([2]; TID (N = 59), Day 72): (5.1) %
reduction of mean total caloric intake compared with pooled placebo ([2]; TID, Day 43): ~15%
reduction of mean total caloric intake compared with pooled placebo ([2]; TID, first day of treatment): approximately 17%
placebo-corrected reduction from baseline in mean BES score ([2]; after 6 weeks): −45±13%
proportion of subjects shifting to a lower binge-eating severity category ([2]; after 6 weeks, placebo […]): 24.6%
reductions from baseline in the total BES score after cessation ([2]; four weeks after cessation of treatment): no longer statistically significant
placebo-corrected reduction from baseline in 24-hour food intake [2, 7]: -489 ± 183 kcal
placebo-corrected reduction from baseline in weight [2, 7]: −2.2±0.5%
placebo-corrected reduction in hip circumference [3, 8]: 2.69±0.82 cm
placebo-corrected reduction in waist circumference [3, 8]: 2.691±1.08 cm
percentage of subjects achieving >5% reduction in baseline body weight ([3]; Class I (BMI <35 kg/m^2), n 43, placebo 0%): 39.5%
percentage of subjects achieving >5% reduction in baseline body weight ([3]; Class II (BMI ≧35 kg/m^2 to <40 kg/m^2), n 25, placebo 0%): 28.0%
percentage of subjects achieving >5% reduction in baseline body weight ([3]; Class II (BMI ≧40 kg/m^2), n 29, placebo 5.0%): 20.7%
placebo-corrected mean weight loss [3, 9]: 3.52 kg
placebo-corrected mean weight loss, of initial body weight [3, 9]: 3.6%
subjects who lost ≧5% of body weight ([3]; after 16 weeks, placebo 2%): 31%
tendency to adsorb onto the glass [4]: does not have a tendency to adsorb onto the glass
